Measurements as given in US7544683B2, “Cyclohexyl derivatives” (Hoffmann-La Roche Inc., priority 2007, dated 2009).
pKi: −log10 of the molar value.

Target: T1, histamine 3 receptor (H3R) (Homo sapiens, UniProt Q9Y5N1)
T1 construct: expressed in transfected cells; host or cells: CHO cells
Test: Binding assay with 3H-(R)α-methylhistamine, competition binding on membranes of the human H3R-CHO cell line
Details: competition with 3H(R)α-methylhistamine (1 nM), Ki calculated from IC50 by Cheng-Prusoff
Description: Binding Assay with ^3H-(R)α-methylhistamine
Saturation binding experiments were performed using HR3-CHO membranes prepared as described in Takahashi, K, Tokita, S., Kotani, H. (2003) J. Pharmacol. Exp. Therapeutics 307, 213-218.
An appropriate amount of membrane (60 to 80 μg protein/well) was incubated with increasing concentrations of ^3H(R)α-Methylhistamine di-hydrochloride (0.10 to 10 nM). Non specific binding was determined using a 200 fold excess of cold (R)α-Methylhistamine dihydrobromide (500 nM final concentration). The incubation was carried out at room temperature (in deep-well plates shaking for three hours). The final volume in each well was 250 μl. The incubation was followed by rapid filtration on GF/B filters (pre-soaked with 100 μl of 0.5% PEI in Tris 50 mM shaking at 200 rpm for two hours). The filtration was made using a cell-harvester and the filter plates were then washed five times with ice cold washing buffer containing 0.5 M NaCl. After harvesting, the plates were dried at 55° C. for 60 min, then we added scintillation fluid (Microscint 40, 40 microl in each well) and the amount of radioactivity on the filter was determined in Packard top-counter after shaking the plates for two hours at 200 rpm at room temperature.
Binding Buffer: 50 mM Tris-HCl pH 7.4 and 5 mM MgCl2×6H2O pH 7.4. Washing Buffer: 50 mM Tris-HCl pH 7.4 and 5 mM MgCl2×6H2O and 0.5 M NaCl pH 7.4.
Indirect measurement of affinity of H3R inverse agonists: twelve increasing concentrations (ranging from 10 μM to 0.3 nM) of the selected compounds were always tested in competition binding experiments using membrane of the human H3R-CHO cell line. An appropriate amount of protein, e.g. approximately 500 cpm binding of RAMH at Kd, were incubated for 1 hour at room temperature in 250 μl final volume in 96-well plates in presence of ^3H(R)α-methylhistamine (1 nM final concentration=Kd). Non-specific binding was determined using a 200 fold excess of cold (R)α-methylhistamine dihydrobromide.
All compounds were tested at a single concentration in duplicate. […] The concentration at which 50% inhibition of the radioligand ^3H(R)α-methylhistamine is obtained (the IC50) is determined from the linear regression of a plot of the logarithm of the concentration versus percent inhibition measured for the different concentrations. Ki's were calculated from IC50 based on Cheng-Prusoff equation (Cheng, Y, Prusoff, W H (1973) Biochem Pharmacol 22, 3099-3108): Ki=IC50/[1+D/Kd] wherein D is the concentration of the radioligand and Kd is the binding constant for the radioligand binding to the receptor under the conditions used in the competition experiment.

T1 sequence (Q9Y5N1 whole entry): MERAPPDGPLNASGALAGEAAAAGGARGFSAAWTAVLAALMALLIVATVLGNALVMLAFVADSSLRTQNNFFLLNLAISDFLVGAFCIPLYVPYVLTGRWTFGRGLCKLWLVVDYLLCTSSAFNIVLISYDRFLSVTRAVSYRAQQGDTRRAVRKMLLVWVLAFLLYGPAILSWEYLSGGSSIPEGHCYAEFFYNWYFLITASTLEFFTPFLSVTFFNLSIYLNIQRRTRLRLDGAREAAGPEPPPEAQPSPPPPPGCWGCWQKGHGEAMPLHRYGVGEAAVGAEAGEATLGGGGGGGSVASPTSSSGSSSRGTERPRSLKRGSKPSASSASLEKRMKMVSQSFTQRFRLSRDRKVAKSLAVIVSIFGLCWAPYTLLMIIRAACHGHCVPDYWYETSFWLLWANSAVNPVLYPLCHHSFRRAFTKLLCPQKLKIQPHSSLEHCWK

Compound	pKi
CNC(=O)c1csc(O[C@H]2CC[C@H](C(=O)N3CCN(C(C)C)CC3)CC2)n1 [Example 27, trans-2-[4-(4-Isopropyl-piperazine-1-carbonyl)-cyclohexyloxy]-thiazole-4-carboxylic acid methylamide]	7.54
O=C([C@H]1CC[C@H](Oc2ccc(-n3cncn3)cc2)CC1)N1CCN(C2CCC2)CC1 [Example 1, Trans-(4-Cyclobutyl-piperazin-1-yl)-[4-(4-[1,2,4]triazol-1-yl-phenoxy)-cyclohexyl]-methanone]	8.19
O=C1COCCN1c1ccc(O[C@H]2CC[C@H](C(=O)N3CCN(C4CCC4)CC3)CC2)cc1 [Example 42, trans-4-{4-[4-(4-Cyclobutyl-piperazine-1-carbonyl)-cyclohexyloxy]-phenyl}-morpholin-3-one]	8.16
CS(=O)(=O)c1ccc(O[C@H]2CC[C@H](C(=O)N3CCN(C4CCC4)CC3)CC2)nc1 [Example 13, trans-(4-Cyclobutyl-piperazin-1-yl)-[4-(5-methanesulfonyl-pyridin-2-yloxy)-cyclohexyl]-methanone]	7.95
CC(C)N1CCN(C(=O)[C@H]2CC[C@H](Oc3ccc(-c4ccncc4)cc3)CC2)CC1 [Example 50, trans-(4-Isopropyl-piperazin-1-yl)-[4-(4-pyridin-4-yl-phenoxy)-cyclohexyl]-methanone]	8.36
CC(C)c1nnc(-c2ccc(O[C@H]3CC[C@H](C(=O)N4CCN(C(C)C)CC4)CC3)cc2)o1 [Example 31, trans-{4-[4-(5-Isopropyl-[1,3,4]oxadiazol-2-yl)-phenoxy]-cyclohexyl}-(4-isopropyl-piperazin-1-yl)-methanone]	8.25
